Measurements taken from ChEMBL document CHEMBL1201862, “PubChem BioAssay data set” (2004).
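In this assay, cells in 96-well plates receive the compound at five concentrations for 48 hours. Endpoints are linearly interpolated between the surrounding concentrations. Abbreviation: GI50, concentration required for 50% inhibition of growth.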 Activity calls are given as the source filed them. No stated cut-off is given here; in the data, active = GI50 up to about 1.1 µM and inactive = higher.

Key:
Assay in all cases: DTP human tumour cell line panel, 48 h
UACC-257 = tested on: UACC-257
SF-295 = tested on: SF-295
K562 = tested on: K562
HCC 2998 = tested on: HCC 2998
DLD-1 = tested on: DLD-1
TK-10 = tested on: TK-10
OVCAR-4 = tested on: OVCAR-4
NCI-H23 = tested on: NCI-H23
RPMI-8226 = tested on: RPMI-8226
SR = tested on: SR
HCT-15 = tested on: HCT-15
HL-60 = tested on: HL-60
SK-OV-3 = tested on: SK-OV-3
U-251 = tested on: U-251
BT-549 = tested on: BT-549
MDA-N = tested on: MDA-N
OVCAR-3 = tested on: OVCAR-3
MDA-MB-435 = tested on: MDA-MB-435
HOP-62 = tested on: HOP-62
MCF7 = tested on: MCF7

Row | SMILES | GI50 (UACC-257) | GI50 (SF-295) | GI50 (K562) | GI50 (HCC 2998) | GI50 (DLD-1) | GI50 (TK-10) | GI50 (OVCAR-4) | GI50 (NCI-H23) | GI50 (RPMI-8226) | GI50 (SR) | GI50 (HCT-15) | GI50 (HL-60) | GI50 (SK-OV-3) | GI50 (U-251) | GI50 (BT-549) | GI50 (MDA-N) | GI50 (OVCAR-3) | GI50 (MDA-MB-435) | GI50 (HOP-62) | GI50 (MCF7)
1 | O=C(O)CS [THIOGLYCOLIC ACID] | > 100 µM (inactive) | > 100 µM (inactive) | > 100 µM (inactive) | > 100 µM (inactive) | > 100 µM (inactive) | > 100 µM (inactive) | > 100 µM (inactive) | > 100 µM (inactive) | > 100 µM (inactive) | > 100 µM (inactive) | > 100 µM | > 100 µM (inactive) | > 100 µM (inactive) | > 100 µM (inactive) | – | – | – | – | – | –
2 | Cc1ccc(C(=O)N(C2CCCCC2)C2CCCCC2)cc1/N=N/N(C)C | 12.9 µM (inactive) | 11.4 µM (inactive) | 8.28 µM (inactive) | 15.7 µM (inactive) | 14.7 µM (inactive) | 9.82 µM (inactive) | 10.4 µM (inactive) | 11.3 µM (inactive) | 8.75 µM (inactive) | 18.2 µM (inactive) | 14.1 µM | 6.07 µM (inactive) | 17.8 µM (inactive) | 18.4 µM (inactive) | 13.9 µM (inactive) | 15 µM (inactive) | 6.34 µM (inactive) | 16.2 µM (inactive) | 12.3 µM (inactive) | 14.9 µM (inactive)
3 | FC(F)(F)c1ccccc1C1SCc2nc3ccccc3n21 (stereo not drawn) | 26.1 µM (inactive) | 57.1 µM (inactive) | 16.2 µM (inactive) | > 100 µM (inactive) | 52.2 µM (inactive) | > 100 µM (inactive) | – | 34 µM (inactive) | 23 µM (inactive) | 27.9 µM (inactive) | – | 10.2 µM (inactive) | 60.7 µM (inactive) | 88.5 µM (inactive) | – | – | 40.1 µM (inactive) | – | – | –
4 | CCOC(=O)N[C@H]1CCc2cc(O)c(OC)c(OC)c2-c2ccc(SC)c(=O)cc21 | < 0.0491 µM (active) | 0.0123 µM (active) | 0.0136 µM (active) | 0.113 µM (active) | 0.0351 µM (active) | 0.394 µM (active) | 8 µM (inactive) | 0.0157 µM (active) | < 0.0135 µM (active) | 0.0345 µM (active) | 0.0323 µM | < 0.01 µM (active) | 0.24 µM (active) | < 0.0162 µM (active) | – | – | 0.0123 µM (active) | – | 0.0386 µM (active) | –
5 | CCOC(=O)C1C(c2ccccc2)=C(c2ccccc2)C(c2ccccc2)=C1c1ccccc1 | > 94.6 µM (inactive) | 23.6 µM (inactive) | 35 µM (inactive) | > 100 µM (inactive) | > 100 µM (inactive) | 23.4 µM (inactive) | 18.2 µM (inactive) | 34.2 µM (inactive) | 19.6 µM (inactive) | 46.8 µM (inactive) | 72.1 µM | 57.1 µM (inactive) | 22.6 µM (inactive) | 21.2 µM (inactive) | – | – | 26.3 µM (inactive) | – | 12.6 µM (inactive) | –
6 | CN(C)CCC(=O)N1C/C(=C\c2ccc(Cl)c(Cl)c2)C(=O)/C(=C/c2ccc(Cl)c(Cl)c2)C1 | 1.1 µM (active) | 0.274 µM (active) | 0.038 µM (active) | 0.321 µM (active) | 0.157 µM (active) | 0.625 µM (active) | 0.245 µM (active) | 0.504 µM (active) | 0.074 µM (active) | 0.0746 µM (active) | 0.184 µM | 0.0435 µM (active) | 1.86 µM (inactive) | 0.149 µM (active) | 0.426 µM (active) | 0.213 µM (active) | 0.448 µM (active) | 0.347 µM (active) | 0.303 µM (active) | 0.14 µM (active)
7 | O=C(O)c1ccc(/N=N/c2cc(S(=O)(=O)O)c3cccnc3c2O)cc1 | > 100 µM (inactive) | > 100 µM (inactive) | > 100 µM (inactive) | > 100 µM (inactive) | 63.4 µM (inactive) | > 100 µM (inactive) | > 100 µM (inactive) | > 100 µM (inactive) | > 100 µM (inactive) | > 100 µM (inactive) | > 100 µM | > 100 µM (inactive) | > 100 µM (inactive) | > 100 µM (inactive) | – | – | > 100 µM (inactive) | – | > 100 µM (inactive) | –
8 | CCCCOC(=O)NC(=O)c1cn(CCSCCOC(=O)NCCCCCCNC(=O)OCCSCCn2cc(C(=O)NC(=O)OCCCC)c(=O)[nH]c2=O)c(=O)[nH]c1=O | > 100 µM (inactive) | 26.6 µM (inactive) | > 100 µM (inactive) | > 100 µM (inactive) | > 100 µM (inactive) | 30.1 µM (inactive) | > 100 µM (inactive) | 27.4 µM (inactive) | > 100 µM (inactive) | 54.6 µM (inactive) | > 100 µM | > 100 µM (inactive) | 30.1 µM (inactive) | 23.4 µM (inactive) | – | – | > 100 µM (inactive) | – | 44.6 µM (inactive) | –
9 | O=C(N[C@H](CO)[C@H](O)c1ccc([N+](=O)[O-])cc1)C(Cl)Cl [CHLORAMPHENICOL] | > 100 µM (inactive) | > 100 µM (inactive) | > 100 µM (inactive) | > 100 µM (inactive) | > 100 µM (inactive) | > 100 µM (inactive) | > 95.9 µM (inactive) | > 100 µM (inactive) | > 100 µM (inactive) | > 100 µM (inactive) | > 100 µM | > 100 µM (inactive) | > 100 µM (inactive) | > 100 µM (inactive) | > 100 µM (inactive) | > 100 µM (inactive) | > 100 µM (inactive) | > 100 µM (inactive) | > 100 µM (inactive) | > 100 µM (inactive)
10 | CN(C)/N=N/c1[nH]cnc1C(N)=O [DACARBAZINE] | 49.8 µM (inactive) | 55.1 µM (inactive) | 16 µM (inactive) | 45.8 µM (inactive) | 56.9 µM (inactive) | 41.6 µM (inactive) | 34.8 µM (inactive) | 93.8 µM (inactive) | 19.1 µM (inactive) | 18.9 µM (inactive) | 94.6 µM | 14.9 µM (inactive) | 20.6 µM (inactive) | 92 µM (inactive) | 51.3 µM (inactive) | > 86.1 µM (inactive) | 55.3 µM (inactive) | 84.5 µM (inactive) | 24.5 µM (inactive) | 89.7 µM (inactive)
11 | COC(=O)C1=C(O)c2cc(OC)c(OC)c(OC)c2C(c2ccc3c(c2)OCO3)[C@@H]1C(=O)OC (stereo partly drawn) | 5.81 µM (inactive) | 2.01 µM (inactive) | 3.9 µM (inactive) | 4.97 µM (inactive) | 4.69 µM (inactive) | 7.18 µM (inactive) | 6.49 µM (inactive) | 7.03 µM (inactive) | 6.62 µM (inactive) | 3.66 µM (inactive) | 7.1 µM | 1.74 µM (inactive) | 3.44 µM (inactive) | 3.66 µM (inactive) | – | – | 1.99 µM (inactive) | – | 5.53 µM (inactive) | –
12 | Cc1ccc(-c2c(N)nc(NC#N)nc2CCC(=O)Nc2ccccc2[N+](=O)[O-])cc1 | > 100 µM (inactive) | > 100 µM (inactive) | > 100 µM (inactive) | > 100 µM (inactive) | > 100 µM (inactive) | > 100 µM (inactive) | > 100 µM (inactive) | > 100 µM (inactive) | > 100 µM (inactive) | > 100 µM (inactive) | > 100 µM | > 100 µM (inactive) | > 100 µM (inactive) | > 100 µM (inactive) | – | – | > 100 µM (inactive) | – | > 100 µM (inactive) | –
